Laboratory results reported in US20170281587A1, “ERYTHROCYTE FUNCTION IMPROVING AGENT” (Glico Nutrition Co., Ltd., priority 2014, published 2017).
Several values for one entry are separate records, joined by “and”; a condition that tells them apart may be missing. Identical values can stand only once.

Key:
red blood cells [1] = conditions: cited from earlier work
red blood cells [2] = conditions: in vivo, po
Method: In this test, paprika carotenoids rich in carotenoids having 3,6-epoxy end groups or 5-membered ring end groups were orally administered to an adult, and cucurbitaxanthin A, capsanthin, capsorubin, and capsanthin 3,6-epoxide were evaluated for their ability to migrate into red blood cells. A specific testing method was as described below.
Initially, 15 g of a paprika pigment emulsified preparation (PapriX; total amount of carotenoids: 10 mg/g) from Glico Nutrition Co., Ltd., 30 g of dextrin, 70 g of sugar, and 3 g of citric acid were dissolved in 1 L of water to prepare a test beverage containing the paprika carotenoids. The paprika pigment emulsified preparation contained 0.053 mass % of cucurbitaxanthin A, 0.40 mass % of capsanthin, 0.021 mass % of capsorubin, and 0.034 mass % of capsanthin 3,6-epoxide, and the test beverage contained 0.00079 mass % of cucurbitaxanthin A, 0.0060 mass % of capsanthin, 0.00031 mass % of capsorubin, and 0.00051 mass % of capsanthin 3,6-epoxide.
Before the beginning of the ingestion and after 4 weeks from the ingestion, blood was collected to obtain blood samples. Red blood cells were separated from the obtained blood samples, and the carotenoids (capsanthin 3,6-epoxide, cucurbitaxanthin A, capsanthin, and capsorubin) present in red blood cells were quantified by HPLC.

[3] = 30 healthy males and females, oral administration for 12 weeks

ability to migrate into red blood cells (migration ratio into red blood cells) (red blood cells [2])	Compound	astaxanthin in the red blood cells (red blood cells [1]; [3])	lipid peroxides in the red blood cells (red blood cells [1]; [3])	migration ratio into red blood cells (red blood cells [1]; day 84 after the ingestion, calculated from literature disclosure)
	CC1=C(/C=C/C(C)=C/C=C/C(C)=C/C=C/C=C(C)/C=C/C=C(C)/C=C/C2=C(C)C(=O)[C@@H](O)CC2(C)C)C(C)(C)C[C@H](O)C1=O [astaxanthin]	an increase in astaxanthin	a decrease in lipid peroxides	0.0089% and 0.0057%
little migration into red blood cells	CC(/C=C/C=C(C)/C=C/C(=O)[C@]1(C)C[C@@H](O)CC1(C)C)=C\C=C\C=C(C)\C=C\C=C(C)\C=C\C(=O)[C@]1(C)C[C@@H](O)CC1(C)C [capsorubin]			
little migration into red blood cells	CC1=C(/C=C/C(C)=C/C=C/C(C)=C/C=C/C=C(C)/C=C/C=C(C)/C=C/C(=O)[C@]2(C)C[C@@H](O)CC2(C)C)C(C)(C)C[C@H](O)C1 [capsanthin]			
little migration into red blood cells	CC(/C=C/C=C(C)/C=C/C(=O)[C@]1(C)C[C@@H](O)CC1(C)C)=C\C=C\C=C(C)\C=C\C=C(C)\C=C\[C@@]12O[C@@H](CC1(C)C)C[C@@]2(C)O [capsanthin 3,6-epoxide]			

Compound	ability to migrate into red blood cells (migration ratio into red blood cells) (red blood cells [2])	astaxanthin in the red blood cells (red blood cells [1]; [3])	lipid peroxides in the red blood cells (red blood cells [1]; [3])	migration ratio into red blood cells (red blood cells [1]; day 84 after the ingestion, calculated from literature disclosure)
CC1=C(/C=C/C(C)=C/C=C/C(C)=C/C=C/C=C(C)/C=C/C=C(C)/C=C/[C@@]23O[C@@H](CC2(C)C)C[C@@]3(C)O)C(C)(C)C[C@H](O)C1 [cucurbitaxanthin A, (3S,3′R,5R,6R)-3,6-epoxy-5,6-dihydro-β,β-carotene-3′,5-diol]	markedly high ability to migrate into red blood cells			
